From article PMC5640798 (Synthetic and Systems Biotechnology, 2016) come the findings set out here.

For this assay, the target named is hERG potassium channel (Homo sapiens, UniProt Q12809). The experiment in a line: hERG channel inhibition test. In kind it is cell-based. A general note: hERG is a cardiac potassium channel; its block is linked to QT prolongation.

Molecules are shown by their SMILES.

hERG potassium channel, sequence (Q12809 whole entry): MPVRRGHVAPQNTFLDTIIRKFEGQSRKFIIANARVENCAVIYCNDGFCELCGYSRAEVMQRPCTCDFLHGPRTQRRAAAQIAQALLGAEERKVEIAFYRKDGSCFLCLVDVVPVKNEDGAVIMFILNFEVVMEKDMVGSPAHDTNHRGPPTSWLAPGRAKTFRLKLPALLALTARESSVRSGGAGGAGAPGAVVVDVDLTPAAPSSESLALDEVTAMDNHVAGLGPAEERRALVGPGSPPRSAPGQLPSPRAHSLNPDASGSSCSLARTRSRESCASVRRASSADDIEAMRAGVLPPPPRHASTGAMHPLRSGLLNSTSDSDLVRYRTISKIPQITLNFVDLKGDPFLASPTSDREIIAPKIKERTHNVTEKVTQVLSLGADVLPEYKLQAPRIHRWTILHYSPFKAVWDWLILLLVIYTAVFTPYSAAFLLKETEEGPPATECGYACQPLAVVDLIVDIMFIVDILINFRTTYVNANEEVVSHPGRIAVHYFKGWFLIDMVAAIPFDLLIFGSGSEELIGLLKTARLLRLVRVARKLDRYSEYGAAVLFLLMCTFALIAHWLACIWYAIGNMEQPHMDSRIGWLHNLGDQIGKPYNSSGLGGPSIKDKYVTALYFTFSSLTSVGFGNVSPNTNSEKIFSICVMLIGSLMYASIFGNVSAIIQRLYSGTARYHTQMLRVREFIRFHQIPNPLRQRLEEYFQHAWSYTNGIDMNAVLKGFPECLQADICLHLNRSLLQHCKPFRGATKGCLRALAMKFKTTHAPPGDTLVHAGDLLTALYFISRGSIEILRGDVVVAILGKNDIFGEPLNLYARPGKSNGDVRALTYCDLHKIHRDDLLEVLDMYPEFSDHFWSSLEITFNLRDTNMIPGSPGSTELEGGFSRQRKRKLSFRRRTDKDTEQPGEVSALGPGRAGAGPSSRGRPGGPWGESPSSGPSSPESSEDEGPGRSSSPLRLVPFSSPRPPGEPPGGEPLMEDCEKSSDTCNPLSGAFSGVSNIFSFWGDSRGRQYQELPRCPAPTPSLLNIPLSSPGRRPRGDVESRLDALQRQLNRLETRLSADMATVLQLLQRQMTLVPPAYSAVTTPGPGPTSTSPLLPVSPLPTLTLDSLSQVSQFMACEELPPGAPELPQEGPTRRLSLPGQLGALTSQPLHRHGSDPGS

For orientation: IC50 means the midpoint of a concentration-inhibition curve. High values mean a need for much substance, low ones inhibition by little substance. On to `CC(C)[C@H]1OC(=O)[C@H](Cc2ccccc2)N(C)C(=O)[C@@H](C(C)C)OC(=O)[C@H](Cc2ccccc2)N(C)C(=O)[C@@H](C(C)C)OC(=O)[C@H](Cc2ccccc2)N(C)C1=O` [BEA, beauvericin], for which the IC50 was around 2.55 µM.
